Experimental findings from patent US20250197642A1, “PHTHALOCYANINE PIGMENT, PHTHALOCYANINE COMPOUND, COLORING COMPOSITION, METHOD FOR PRODUCING PHTHALOCYANINE PIGMENT, AND METHOD FOR PRODUCING COLORING COMPOSITION” (FUJIFILM CORPORATION, priority 2022, published 2025) are described below.

Data set [1] in a line: Evaluation of storage stability (viscosity increase proportion after storage). In kind it is physicochemical. The settings on record: aqueous coloring compositions 1 to 8 and A to C; stored 7 days at 45° C., viscosity at 25° C. The method, then: In an environment of 45° C. by an oven, the coloring compositions 1 to 8 and the coloring compositions A to C were stored for 7 days.
A viscosity of the coloring composition before and after the storage was measured, a viscosity increase proportion (Viscosity after storage−Viscosity before storage)/Viscosity before storage×100 was determined, and the evaluation was performed based on the following evaluation standard.
The viscosity of the coloring composition was measured using a viscometer RE85L (rotor: 1°34′×R24, measurement range: 0.6 to 1200 mPa·s) manufactured by TOKI-SANGYO Co., Ltd. in a state in which the temperature was adjusted to 25° C.
• A: viscosity increase proportion was 10% or less. • B: viscosity increase proportion was more than 10%.

Data set [2] in a line: Evaluation of light fastness (compound residual rate after xenon light irradiation of ink jet image). The settings on record: aqueous coloring compositions 1 to 8 and A to C; image on art paper, xenon light 85,000 lux, 100 hours. It counts as physicochemical. An excerpt:
The pigment dispersion liquid 1, a polyurethane resin (HYDRAN (registered trademark) AP-40F (manufactured by DIC Corporation)), and deionized water were mixed to produce an aqueous pigment dispersion liquid 1 having a pigment content of 10% by mass and a polyurethane resin non-volatile content of 2% by mass.
The following components were mixed to obtain a coloring composition 1.
Coloring compositions 2 to 8 were obtained in the same manner as in the above-described method, except that the pigment dispersion liquid 1 was changed to each of the pigment dispersion liquids 2 to 8.
A coloring composition A was obtained in the same manner as in the above-described method, except that the pigment dispersion liquid 1 was changed to the pigment dispersion liquid A. […]
The above-described image was irradiated with xenon light (85,000 lux) for 100 hours using a weather meter (manufactured by Atlas, Ci65), and a reflection density after the irradiation with xenon light was measured using a reflection densitometer (manufactured by X-Rite, Inc., trade name: X-Rite i1Pro). […]
A compound residual rate (%) before and after the irradiation with xenon light was calculated from the following expression, and evaluated based on the following evaluation standard. […]

For C. I. Pigment Green 58 [PG58], the “Evaluation of storage stability” value in data set [1] is listed as “B (viscosity increase proportion was more than 10%)”. Also, in data set [2], the “Evaluation of light fastness” value was “A (compound residual rate was 80% or more)”.
